Assay results reported in publication PMC2929646 (Nutrition research (New York, N.Y.), 2010).
Like-named read-outs stand apart in the source and are kept apart here.

What was measured:
[1] = cited from earlier work
[2] = cited from earlier work; remark: listed apart in the source
[3] = system: Caco-2 human intestinal cells; test: Parallel accumulation and retention experiment in Caco-2 monolayers; type: in vitro ADME; conditions: after 3 h accumulation, 1 h in catechin/dimer-free PBS; mean ± SEM, n=4
[4] = Stability in cell-free experimental media; type: physicochemical; conditions: cell-free media (pH 5 PBS), 37°C, media 5 (EGCG), media 2 (dimers), mean ± SEM, n=4
Caco-2 monolayers [5] = conditions: cited from earlier work
Caco-2 cells [6] = conditions: cited from earlier work
[7] = system: human histolytic lymphoma U937 cells; conditions: cited from earlier work
U937 cells = conditions: cited from earlier work
lipase = conditions: cited from earlier work
rat squalene epoxidase = conditions: relative to EGCG; cited from earlier work
[8] = system: Caco-2 human intestinal cells (TC7 clone); test: Accumulation of catechin monomers and auto-oxidation dimers by Caco-2 monolayers
[9] = system: fibrosarcoma HT1080 cells; conditions: cited from earlier work
Caco-2 cells [10] = conditions: media containing 50 µM ECG; cited from earlier work
Caco-2 monolayers [11] = conditions: cited from earlier work; remark: listed apart in the source

Compound: theasinensins (THSNs) A/D [THSNs A/D]
- O2^•− scavenging activity compared with EGCG [1]: equal to or greater than EGCG
- Fe^2+ chelation activity compared with EGCG [2]: equal to or greater than EGCG
- 1 h Retention, Absolute [3]: 7.08 ± 2.2 pmol/well
- Stability over 3 h (percent of initial concentration) [4]: 100 ± 0.36%

Compound: Oc1cc(O)c2c(c1)O[C@H](c1ccc(O)c(O)c1)[C@@H](O)[C@@H]2c1c(O)cc(O)c2c1O[C@H](c1ccc(O)c(O)c1)[C@@H](O)C2 [procyanidin dimer B3, (+)-C-(4α→8)-(+)-C]
- apparent apical → basolateral permeability (Caco-2 monolayers [5]): 2 ×10⁻⁶ cm/s

Compound: Oc1cc(O)c2c(c1)O[C@H](c1cc(O)c(O)c(O)c1)[C@H](O)C2 [EGC, (−)-epigallocatechin]
- 3 h accumulation (Caco-2 cells [6]): 0.1–0.5 nmol/mg protein

Compound: O=C(O[C@@H]1Cc2c(O)cc(O)cc2O[C@@H]1c1cc(O)c(O)c(O)c1-c1c([C@H]2Oc3cc(O)cc(O)c3C[C@H]2OC(=O)c2cc(O)c(O)c(O)c2)cc(O)c(O)c1O)c1cc(O)c(O)c(O)c1 [THSN A]
- induction of apoptosis [7]: induced apoptosis
- inhibition of growth compared with EGCG (U937 cells): more effective at inhibiting the growth of U937 cells than EGCG
- inhibition of lipase compared with EGCG (lipase): more effective inhibitor of lipase than EGCG
- IC50 value, fold lower than EGCG (rat squalene epoxidase): 5 ×

Compound: O=C(O[C@@H]1Cc2c(O)cc(O)cc2O[C@@H]1c1cc(O)c(O)c(O)c1)c1cc(O)c(O)c(O)c1 [EGCG, (−)-epigallocatechin gallate]
- 3 h accumulation (Caco-2 cells [6]; previously reported by the authors): 0.2–2.5 nmol/mg protein
- net accumulation at 3 h (amount per mg protein) ([8]; 37°C, pH 5 PBS, media from EGCG + EGC (media 3, 6)): 1.89 ± 0.15 nmol/mg
- Three h accumulation (range over monomer media) ([8]; 3 h, range over the media that contain the monomer): 1.24–1.35%
- Stability over 3 h (percent of initial concentration) [4]: 91.8 ± 6.4%

Compound: O=C(O[C@@H]1Cc2c(O)cc(O)cc2O[C@@H]1c1cc(O)c(O)c(O)c1-c1c([C@H]2Oc3cc(O)cc(O)c3C[C@H]2OC(=O)c2cc(O)c(O)c(O)c2)cc(O)c(O)c1O)c1cc(O)c(O)c(O)c1 [THSN D]
- induction of apoptosis compared with EGCG [7]: more effective than EGCG
- inhibition of invasive activity compared with EC, EGC and EGCG [9]: better inhibitor of the invasive activity of fibrosarcoma HT1080 cells than EC and EGC, but was less effective than EGCG

Compound: O=C(O[C@@H]1Cc2c(O)cc(O)cc2O[C@@H]1c1ccc(O)c(O)c1)c1cc(O)c(O)c(O)c1 [ECG, (−)-epicatechin gallate]
- 1 h accumulation (Caco-2 cells [10]): roughly 3 nmol/mg protein

Compound: Oc1cc(O)c2c(c1)O[C@H](c1ccc(O)c(O)c1)[C@@H](O)C2 [(+)-C, (+)-catechin]
- membrane adsorption (Caco-2 monolayers [11]): 0.15–0.2 % transmembrane resistance, Ω cm^2
- apparent apical → basolateral permeability (Caco-2 monolayers [5]): 0.8 ×10⁻⁶ cm/s
